Data taken from US8703988B2, “Self-assembled nanostructures” (Xerox Corporation, priority 2010, dated 2014).
“Also recorded” adds a separate entry of the source.

Columns and labels:
[1] = Self-assembled nanostructures observed by SEM and STEM; type: physicochemical
Description: Microscopy techniques such as optical light microscopy, scanning electron microscopy (SEM), transmission electron microscopy (TEM), atomic force microscopy (AFM)/scanning probe microscopy (SPM), and fluorescence microscopy are useful for determining the size and morphology of the nano (and micro) structures formed from alkylated derivatives of aromatic acids. Samples are typically prepared by depositing a drop of the liquid composition containing the nanostructures onto an appropriate sample substrate such as a carbon film coated copper mesh TEM grid, removing the excess liquid by blotting with filter paper, and then allowing to dry prior to analysis. Dynamic light scattering is also useful for detecting the presence of particles between 1 nm and 1 μm in size, measuring the size/size distribution of the dispersed particles. Rheometry is useful for determining the viscoelastic properties and thermal phase transitions for compositions of the self-assembled nanostructures. X-ray diffraction is useful for characterizing the structure of the self-assembled nanostructures size as phase identification, crystallinity, phase transitions, crystal structure refinement and determination, and size and strain broadening of crystallite nanostructures. NMR spectroscopy is useful in detecting the formation intermolecular noncovalent interactions stabilizing the nanostructures, their diffusion properties, as well as phase transitions. UV-Vis can be used for detecting the presence of nanostructures as well as confirming the presence of intermolecular pi-stacking interactions. FT-IR spectroscopy is also useful for the detection of hydrogen-bonding interactions involved in stabilizing the self-assembled nanostructures. Differential Scanning calorimetry (DSC) is another useful characterization technique, which enables the identification of thermal phase transitions within the compositions containing the nanostructures.
This example describes the self-assembled nanostructures formed from alkylated derivatives of aromatic acids deposited onto substrates observed by Scanning Electron and Scanning Transmission Electron Microscopy (SEM and STEM, respectively).
Microscopy samples are prepared by mixing the alkylated derivatives of aromatic acids as solids with a solvent, subjecting the mixture to bath sonication, and then heating to form a clear solution. The solutions are then cooled to room temperature and allowed to age for desired periods of time prior to microscopy sample preparation. After cooling, the samples may be clear solutions, turbid colloidal solutions, or more opaque dispersions. Microscopy samples are prepared for analysis by depositing a drop on thin carbon film coated copper mesh grids, allowing the drop to remain on the film for a desired period of time, followed by wicking away the excess solvent with filter paper and allowing to dry. Table 5 summarizes examples of compositions containing nanostructures of alkylated derivatives of selected aromatic acids for this invention. FIGS. 1 to 7 show Scanning Electron Microscopy and Scanning Transmission Electron Microscopy images of the nanostructures formed from alkylated derivatives of selected aromatic acids.

[2] = Gelation test (gelator ability in solvents, vial inversion); type: physicochemical; set-up: key: I = insoluble; P = precipitate; S = solution; VS = viscous solution; G = gel; PG = partial gel; settings: concentration in wt % in parentheses in each cell
Procedure: A number of characterization methods are useful for detecting and characterizing self-assembled nanostructures from alkylated derivatives of aromatic acids. The simplest test is to observe any changes in viscosity (rheology) of the liquid containing the alkylated compound relative to the neat liquid alone. […] The increase in viscosity and gelation of liquids is known to occur due to the presence and entanglement of long, 1D aggregates.
To vials with a screw cap lids (4 mL capacity) were added alkylated derivatives of aromatic acids as solids (1-100 mg) and a solvent (1 mL). The mixture was then sonicated and heated until clear solutions were obtained. After cooling and standing at room temperature for at least 30 min., the sample was inverted and inspected visually.

[3] = Xylenes:THF (1:1), 1.3 mg/mL, fibrils
[4] = solvent H2O, sonicated, heated, cooled, room temperature at least 30 min, vial inverted
[5] = Toluene, 0.1 mg/mL, bundles of fibrils

Row | gelator ability (state of sample) ([2]; solvent CHCl3) | gelator ability (state of sample) ([2]; solvent Ethylene Glycol) | gelator ability (state of sample) [2, 4] | gelator ability (state of sample) ([2]; solvent Hexadecane) | gelator ability (state of sample) ([2]; solvent Hexanes) | gelator ability (state of sample) ([2]; solvent MeOH) | gelator ability (state of sample) ([2]; solvent Toluene) | Description (nanostructure) ([1]; Chloroform, 0.1 mg/mL) | L ([1]; Chloroform, 0.1 mg/mL, fibrils) | W ([1]; Chloroform, 0.1 mg/mL, fibrils) | gelator ability (state of sample) ([2]; solvent Cyclohexane) | gelator ability (state of sample) ([2]; solvent Decalin) | gelator ability (state of sample) ([2]; solvent Dimethoxyethane) | gelator ability (state of sample) ([2]; solvent Xylenes) | SMILES | other results
1 | I (0.1) | S (0.1) | I (0.1) | I (1.1) | I (0.1) | S | I (1.3) | – | – | – | – | – | – | – | CCCC(=O)Nc1cc(C(=O)O)cc(C(=O)O)c1 [compound 45, 5-(butyramido)isophthalic acid] | L [1, 3]: 50-1000 nm; W [1, 3]: 3-6 nm; L ([1]; Xylenes:THF (1:1), 1.3 mg/mL, sheets): 2000-10000 nm
2 | P (0.1) | P (2.5) | I (0.1) | – | I (0.1) | S (3.0) | I (0.5) | Fibrils | 50-1000 nm | 5-10 nm | I (0.1) | I (2.0) | S (0.1) | I (2.0) | CCCCCCCCCCCCC(CCCCCCCCCC)C(=O)Nc1cc(C(N)=O)cc(C(N)=O)c1 (stereo not shown) [compound 74, 5-(2-decyltetradecanamido)isophthalamide] | Description (nanostructure) ([1]; Chloroform, 1.0 mg/mL): Fibers; L ([1]; Chloroform, 1.0 mg/mL, fibers): 300-800 nm; W ([1]; Chloroform, 1.0 mg/mL, fibers): 25-200 nm; Description (nanostructure) ([1]; EtOH:H2O, 1.0 mg/mL): Fibers; also recorded: Fibrils; L ([1]; EtOH:H2O, 1.0 mg/mL, fibers): >5000 nm; W ([1]; EtOH:H2O, 1.0 mg/mL, fibers): 50-250 nm; L ([1]; EtOH:H2O, 1.0 mg/mL, fibrils): 10-100 nm; W ([1]; EtOH:H2O, 1.0 mg/mL, fibrils): 5-10 nm
3 | I (0.1) | P (0.5) | I (0.1) | I (0.1) | – | G (2.0) | I (0.1) | Fibrils | >1000 nm | 5-10 nm | – | G (2.3) | S (1.0) | G (2.0) | CCCCCCCCCCCCCCCCCCNC(=O)Nc1cc(C(=O)O)cc(C(=O)O)c1 [compound 56] | –
4 | G (0.4) | PG (2.0) | I (0.1) | G (1) | P (0.2), | S (0.1) | G (1.0) | – | – | – | G (1.0) | G (0.5) | G (0.6) | G (1) | CCCCCCCCCCCCC(CCCCCCCCCC)C(=O)Nc1cc(C(=O)O)cc(C(=O)O)c1 (stereo not shown) [compound 53, 5-(2-decyltetradecanamido)isophthalic acid] | Description (nanostructure) ([1]; Toluene, 0.1 mg/mL): Bundles of fibrils; L [1, 5]: >1000 nm; W [1, 5]: 20-100 nm; L ([1]; Toluene, 0.1 mg/mL, fibrils): >1000 nm; W ([1]; Toluene, 0.1 mg/mL, fibrils): 5-10 nm; gelator ability (state of sample) ([2]; solvent Benzene): G (0.4); gelator ability (state of sample) ([2]; solvent Dodecane): G (1)
